Data on 28 compounds can be found in patent US20060142348A1, “Aryl sulfonamide peri-substituted bicyclics for occlusive artery disease” (deCODE Chemistry, Inc., priority 2004, published 2006).

One may read the IC50 as the concentration that inhibits the measured activity by half.

Some results are limits rather than exact numbers.

This experiment deals with T1, prostanoid EP3 receptors (Homo sapiens, UniProt P43115).
T1 sequence (P43115 1-365 isoform P43115-3): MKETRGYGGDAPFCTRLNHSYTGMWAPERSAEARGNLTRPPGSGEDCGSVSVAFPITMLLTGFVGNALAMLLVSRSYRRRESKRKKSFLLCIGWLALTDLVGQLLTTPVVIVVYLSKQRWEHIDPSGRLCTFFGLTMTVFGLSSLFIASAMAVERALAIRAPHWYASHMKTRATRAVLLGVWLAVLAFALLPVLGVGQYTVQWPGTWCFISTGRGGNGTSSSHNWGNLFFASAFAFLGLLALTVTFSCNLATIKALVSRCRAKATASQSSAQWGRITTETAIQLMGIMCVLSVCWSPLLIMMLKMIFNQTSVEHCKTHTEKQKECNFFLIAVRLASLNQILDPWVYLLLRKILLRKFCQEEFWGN
Put plainly: binding on prostanoid EP3 receptors (method of Abramovitz et al.). The conditions noted are these: read-out: Activity (EP3 receptor binding IC50). The procedure: The compounds of the invention may be assayed for their binding on prostanoid EP3 receptors according to the method of Abramovitz et al. [Bioch. Biophys. Actas 1473, 285-293 (2000)]. All of the examples in the tables below have been synthesized, characterized and tested for EP3 receptor binding.
The compounds of the invention were assayed for their binding on prostanoid EP3 receptors according to the method of Abramovitz et al. [Bioch. Biophys. Acta, 1473, 285-293 (2000)]. […] Compounds with IC50<1 μM are shown as +++; compounds with IC50<1-10 μM are shown as ++; and compounds with IC50>10 μM are shown as +.
For the compound `Cn1cc(Cc2ccc3ccccc3c2)c2c(-c3cc(NS(=O)(=O)c4cc(Cl)c(Cl)s4)n[nH]3)cccc21` [Compound B01, 4,5-Dichloro-thiophene-2-sulfonic acid [5-(1-methyl-3-naphthalen-2-ylmethyl-1H-indol-4-yl)-1H-pyrazol-3-yl]-amide], the 50% inhibitory concentration (IC50) was below 1 µM. As to `Cn1cc(Cc2ccc3ccccc3c2)c2c(-c3cc(N)nn3S(=O)(=O)c3cc(Cl)c(Cl)s3)cccc21` [Compound B02, 1-(4,5-Dichloro-thiophene-2-sulfonyl)-5-(1-methyl-3-naphthalen-2-ylmethyl-1H-indol-4-yl)-1H-pyrazol-3-ylamine], the IC50 is 1 to 10 µM. Next, `Cn1cc(Cc2ccc3ccccc3c2)c2c(-c3cccc(NS(=O)(=O)c4cc(Cl)c(Cl)s4)c3)cccc21` [Compound B03, 4,5-Dichloro-thiophene-2-sulfonic acid[3-(1-methyl-3-naphthalen-2-ylmethyl-1H-indol-4-yl)-phenyl]-amide]: 1 to 10 µM; `Cn1cc(Cc2ccc3ccccc3c2)c2c(-c3ccc(NS(=O)(=O)c4cc(Cl)c(Cl)s4)cc3)cccc21` [Compound B04, 4,5-Dichloro-thiophene-2-sulfonic acid[4-(1-methyl-3-naphthalen-2-ylmethyl-1H-indol-4-yl)-phenyl]-amide]: 1 to 10 µM.

As for `Cn1cc(Cc2ccc3ccccc3c2)c2c(-c3ccc(NS(C)(=O)=O)cc3)cccc21` [Compound B05, N-[4-(1-Methyl-3-naphthalen-2-ylmethyl-1H-indol-4-yl)-phenyl]-methanesulfonamide], the IC50 fell in the range of 1 to 10 µM. Next, `Cc1cn(Cc2ccc(F)c(F)c2)c2c(-c3ccc(NS(C)(=O)=O)cc3)cc(F)cc12` [Compound B06, N-{4-[1-(3,4-Difluoro-benzyl)-5-fluoro-3-methyl-1H-indol-7-yl]-phenyl}-methanesulfonamide]: 1 to 10 µM; `Cc1cn(Cc2ccc(F)c(F)c2)c2c(-c3ccc(NS(=O)(=O)C(F)(F)F)cc3)cc(F)cc12` [Compound B07, N-{4-[1-(3,4-Difluoro-benzyl)-5-fluoro-3-methyl-1H-indol-7-yl]-phenyl}-C,C,C-trifluoro-methanesulfonamide]: above 10 µM. Next, `Cn1cc(Cc2ccc3ccccc3c2)c2c(-c3ccc(NS(=O)(=O)C(F)(F)F)cc3)cccc21` [Compound B08, C,C,C-Trifluoro-N-[4-(1-methyl-3-naphthalen-2-ylmethyl-1H-indol-4-yl)-phenyl]-methanesulfonamide]: 1 to 10 µM. Turning to `Cc1cn(Cc2ccc(Cl)cc2Cl)c2c(-c3ccc(NS(C)(=O)=O)cc3)cc(F)cc12` [Compound B09, N-{4-[1-(2,4-Dichloro-benzyl)-5-fluoro-3-methyl-1H-indol-7-yl]-phenyl}-methanesulfonamide], the IC50 is above 10 µM. Next, `Cc1cn(Cc2ccc(Cl)cc2Cl)c2c(-c3nnc(NC(=O)C(F)(F)F)o3)cc(F)cc12` [Compound B10, N-{5-[1-(2,4-Dichloro-benzyl)-5-fluoro-3-methyl-1H-indol-7-yl]-[1,3,4]oxadiazol-2-yl}-2,2,2-trifluoro-acetamide]: 1 to 10 µM. With `Cc1cn(Cc2ccc(Cl)cc2Cl)c2c(-c3nnc(NS(C)(=O)=O)o3)cc(F)cc12` [Compound B11, N-{5-[1-(2,4-Dichloro-benzyl)-5-fluoro-3-methyl-1H-indol-7-yl]-[1,3,4]oxadiazol-2-yl}-methanesulfonamide], the concentration for half-maximal inhibition (IC50) fell in the range of 1 to 10 µM. Next, `Cc1cn(Cc2ccc(Cl)cc2Cl)c2c(-c3nnc(NS(=O)(=O)c4cc(F)c(F)cc4F)o3)cc(F)cc12` [Compound B12, N-{5-[1-(2,4-Dichloro-benzyl)-5-fluoro-3-methyl-1H-indol-7-yl]-[1,3,4]oxadiazol-2-yl}-2,4,5-trifluoro-benzenesulfonamide]: below 1 µM; `Cc1cn(Cc2ccc(Cl)cc2Cl)c2c(-c3nnc(NS(=O)(=O)c4cc(Cl)c(Cl)s4)o3)cc(F)cc12` [Compound B13, 4,5-Dichloro-thiophene-2-sulfonic acid {5-[1-(2,4-dichloro-benzyl)-5-fluoro-3-methyl-1H-indol-7-yl]-[1,3,4]oxadiazol-2-yl}-amide]: below 1 µM. Next, `Cc1cn(Cc2ccc(F)c(F)c2)c2c(-c3cc(NS(C)(=O)=O)n(C)n3)cc(F)cc12` [Compound B14, N-{5-[1-(3,4-Difluoro-benzyl)-5-fluoro-3-methyl-1H-indol-7-yl]-2-methyl-2H-pyrazol-3-yl}-methanesulfonamide]: 1 to 10 µM; `Cc1cn(Cc2ccc(F)c(F)c2)c2c(-c3cc(NS(=O)(=O)c4cc(Cl)c(Cl)s4)n(C)n3)cc(F)cc12` [Compound B15, 4,5-Dichloro-thiophene-2-sulfonic acid {5-[1-(3,4-difluoro-benzyl)-5-fluoro-3-methyl-1H-indol-7-yl]-2-methyl-2H-pyrazol-3-yl}-amide]: 1 to 10 µM; `Cc1cn(Cc2ccc(F)c(F)c2)c2c(-c3cc(NS(C)(=O)=O)no3)cc(F)cc12` [Compound B16, N-{5-[1-(3,4-Difluoro-benzyl)-5-fluoro-3-methyl-1H-indol-7-yl]-isoxazol-3-yl}-methanesulfonamide]: above 10 µM.

For `CC(=O)Nc1ccc(-c2cccc3c2c(Cc2ccc4ccccc4c2)cn3C)cc1` [Compound B17, N-[4-(1-Methyl-3-naphthalen-2-ylmethyl-1H-indol-4-yl)-phenyl]-acetamide], the IC50 was 1 to 10 µM. In the case of `Cn1cc(Cc2ccc3ccccc3c2)c2c(-c3ccc(NC(=O)C(F)(F)F)cc3)cccc21` [Compound B18, 2,2,2-Trifluoro-N-[4-(1-methyl-3-naphthalen-2-ylmethyl-1H-indol-4-yl)-phenyl]-acetamide], the half-maximal inhibitory concentration (IC50) is below 1 µM. Next, `Cc1cn(Cc2ccc(Cl)cc2Cl)c2c(-c3nnc(NS(=O)(=O)c4ccc(F)c(F)c4)o3)cc(F)cc12` [Compound B19, N-{5-[1-(2,4-Dichloro-benzyl)-5-fluoro-3-methyl-1H-indol-7-yl]-[1,3,4]oxadiazol-2-yl}-3,4-difluoro-benzenesulfonamide]: below 1 µM; `Cc1cn(Cc2ccc(Cl)cc2Cl)c2c(-c3nnc(NS(=O)(=O)c4ccc(Cl)c(Cl)c4)o3)cc(F)cc12` [Compound B20, 3,4-Dichloro-N-{5-[1-(2,4-dichloro-benzyl)-5-fluoro-3-methyl-1H-indol-7-yl]-[1,3,4]oxadiazol-2-yl}-benzenesulfonamide]: below 1 µM; `Cc1cn(Cc2ccc(Cl)cc2Cl)c2c(-c3nnc(NC(=O)c4ccc(F)cc4)o3)cc(F)cc12` [Compound B23, N-{5-[1-(2,4-Dichloro-benzyl)-5-fluoro-3-methyl-1H-indol-7-yl]-[1,3,4]oxadiazol-2-yl}-4-fluoro-benzamide]: 1 to 10 µM. Next, `Cc1cn(Cc2ccc(Cl)cc2Cl)c2c(-c3nnc(NC(=O)c4ccno4)o3)cc(F)cc12` [Compound B24, Isoxazole-5-carboxylic acid {5-[1-(2,4-dichloro-benzyl)-5-fluoro-3-methyl-1H-indol-7-yl]-[1,3,4]oxadiazol-2-yl}-amide]: 1 to 10 µM; `Cc1cn(Cc2ccc(Cl)cc2Cl)c2c(-c3nnc(NC(=O)c4cc(Cl)cc(Cl)c4)o3)cc(F)cc12` [Compound B25, 3,5-Dichloro-N-{5-[1-(2,4-dichloro-benzyl)-5-fluoro-3-methyl-1H-indol-7-yl]-[1,3,4]oxadiazol-2-yl}-benzamide]: above 10 µM; `Cc1cn(Cc2ccc(Cl)cc2Cl)c2c(-c3nnc(NC(=O)c4ccc(F)c(F)c4)o3)cc(F)cc12` [Compound B26, N-{5-[1-(2,4-Dichloro-benzyl)-5-fluoro-3-methyl-1H-indol-7-yl]-[1,3,4]oxadiazol-2-yl}-3,4-difluoro-benzamide]: below 1 µM. Next, `Cc1cn(Cc2ccc(Cl)cc2Cl)c2c(-c3nnc(NC(=O)c4ccc(F)cc4F)o3)cc(F)cc12` [Compound B27, N-{5-[1-(2,4-Dichloro-benzyl)-5-fluoro-3-methyl-1H-indol-7-yl]-[1,3,4]oxadiazol-2-yl}-2,4-difluoro-benzamide]: 1 to 10 µM. With `Cc1cn(Cc2ccc(Cl)cc2Cl)c2c(-c3nnc(NC(=O)c4ccc(Cl)cc4Cl)o3)cc(F)cc12` [Compound B28, 2,4-Dichloro-N-{5-[1-(2,4-dichloro-benzyl)-5-fluoro-3-methyl-1H-indol-7-yl]-[1,3,4]oxadiazol-2-yl}-benzamide], the IC50 lay within 1 to 10 µM. For `Cc1cn(Cc2ccc(Cl)cc2Cl)c2c(-c3nnc(NC(=O)c4ccc5c(c4)OC(F)(F)O5)o3)cc(F)cc12` [Compound B29, 2,2-Difluoro-benzo[1,3]dioxole-5-carboxylic acid {5-[1-(2,4-dichloro-benzyl)-5-fluoro-3-methyl-1H-indol-7-yl]-[1,3,4]oxadiazol-2-yl}-amide], the 50% inhibitory concentration (IC50) was below 1 µM. Next, `Cc1cn(Cc2ccc(Cl)cc2Cl)c2c(-c3nnc(NC(=O)c4ccco4)o3)cc(F)cc12` [Compound B30, Furan-2-carboxylic acid {5-[1-(2,4-dichloro-benzyl)-5-fluoro-3-methyl-1H-indol-7-yl]-[1,3,4]oxadiazol-2-yl}-amide]: below 1 µM.
